According to ChEMBL document CHEMBL3881525, “Analogs of dehydrophenylahistins and their therapeutic use” (2007):
The source made the active and inactive calls. The calls are words filed in the database; no cut-off is given here.

Legend:
[1] = target: T1, Tubulin (Homo sapiens) (UniProt P68371+Q9H4B7+P0DPH7+P68366+Q13509+Q71U36+P04350+Q3ZCM7+P07437+P68363+Q9BQE3+Q6PEY2+Q13885+Q9BVA1+Q9BUF5); assay: Induction of microtubule instability in human MCF7 cells assessed as time spent for growth at IC50 for mitotic block measured after 20 hrs by immunofluorescence analysis; type: cell-based
[2] = tested on: MCF7; assay: Antimitotic activity in human MCF7 cells assessed as mitotic index measured after 20 hrs by DAPI-staining based fluorescence microscopic analysis; type: functional, cell-based
[3] = target: T1, Tubulin (Homo sapiens); assay: Induction of microtubule instability in human MCF7 cells assessed as time spent for attenuation at IC50 for mitotic block measured after 20 hrs by immunofluorescence analysis; type: cell-based
[4] = target: T1, Tubulin (Homo sapiens); assay: Induction of microtubule instability in human MCF7 cells assessed as catastrophy frequency at IC50 for mitotic block measured after 20 hrs by immunofluorescence analysis; type: cell-based
[5] = target: T1, Tubulin (Homo sapiens); assay: Induction of microtubule instability in human MCF7 cells assessed as time spent for growth at IC25 for mitotic block measured after 20 hrs by immunofluorescence analysis; type: cell-based
[6] = target: T1, Tubulin (Homo sapiens); assay: Induction of microtubule instability in human MCF7 cells assessed as rescue frequency at IC25 for mitotic block measured after 20 hrs by immunofluorescence analysis; type: cell-based
[7] = tested on: MCF7; assay: Antimitotic activity in human MCF7 cells assessed as decrease in microtubule polymer formation measured after 20 hrs by immunofluorescence analysis relative to control; type: functional, cell-based
[8] = target: Tubulin (Bos taurus) (UniProt Q6B856+Q862L2+Q862F3); conditions: 10 uM
Description: Inhibition of [3H]CLC binding to bovine brain tubulin at 10 uM measured after 120 mins in presence of GTP by scintillation counting method

[9] = target: T1, Tubulin (Homo sapiens); assay: Time required for induction of microtubule dynamic instability in human MCF7 cells at IC25 for mitotic block measured after 20 hrs by immunofluorescence analysis; type: cell-based
[10] = tested on: MCF7; assay: Antimitotic activity in human MCF7 cells assessed as bipolar cells with uncompressed chromosomes at mitotic block IC50 measured after 20 hrs by immunofluorescence analysis relative to control; type: functional
[11] = target: T1, Tubulin (Homo sapiens); assay: Induction of microtubule instability in human MCF7 cells assessed as time spent for attenuation at IC25 for mitotic block measured after 20 hrs by immunofluorescence analysis; type: cell-based
[12] = tested on: MCF7; assay: Antimitotic activity in human MCF7 cells assessed as microtubule polymer at twice mitotic block IC50 measured after 20 hrs by immunofluorescence analysis relative to control; type: functional, cell-based
[13] = target: T1, Tubulin (Homo sapiens); assay: Induction of microtubule instability in human MCF7 cells assessed as catastrophy frequency at IC25 for mitotic block measured after 20 hrs by immunofluorescence analysis; type: cell-based
[14] = target: T1, Tubulin (Homo sapiens); assay: Time required for induction of microtubule dynamic instability in human MCF7 cells at IC50 for mitotic block measured after 20 hrs by immunofluorescence analysis; type: cell-based
[15] = target: T1, Tubulin (Homo sapiens); assay: Induction of microtubule instability in human MCF7 cells assessed as rescue frequency at IC50 for mitotic block measured after 20 hrs by immunofluorescence analysis; type: cell-based
[16] = target: T1, Tubulin (Homo sapiens); assay: Induction of microtubule instability in human MCF7 cells assessed as time spent for shortening at IC50 for mitotic block measured after 20 hrs by immunofluorescence analysis; type: cell-based
[17] = target: T1, Tubulin (Homo sapiens); assay: Induction of microtubule instability in human MCF7 cells assessed as time spent for shortening at IC25 for mitotic block measured after 20 hrs by immunofluorescence analysis; type: cell-based
[18] = Drug level assessed as human hepatic cytochrome P450-mediated compound formation treated with (+/-)phenylahistin; type: ADME
[19] = target: Tubulin (Candida albicans) (UniProt P87066+P10875+O93807); assay: Inhibition of microtubule formation in Candida albicans; type: protein-complex assay
Tubulin (Candida albicans), sequence (O93807 whole entry, looked up): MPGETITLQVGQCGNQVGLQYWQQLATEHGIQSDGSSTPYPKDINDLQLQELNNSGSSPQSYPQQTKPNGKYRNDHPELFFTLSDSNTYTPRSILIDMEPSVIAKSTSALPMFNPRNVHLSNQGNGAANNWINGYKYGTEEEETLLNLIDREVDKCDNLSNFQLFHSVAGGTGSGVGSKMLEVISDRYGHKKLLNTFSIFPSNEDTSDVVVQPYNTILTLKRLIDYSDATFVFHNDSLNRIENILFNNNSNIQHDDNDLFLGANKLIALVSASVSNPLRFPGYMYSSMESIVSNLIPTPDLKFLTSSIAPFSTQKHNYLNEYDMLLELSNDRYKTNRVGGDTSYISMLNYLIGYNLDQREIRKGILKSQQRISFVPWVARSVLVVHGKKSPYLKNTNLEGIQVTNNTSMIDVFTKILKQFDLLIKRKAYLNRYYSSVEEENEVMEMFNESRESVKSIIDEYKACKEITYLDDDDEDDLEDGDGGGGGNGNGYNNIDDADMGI
Tubulin (Candida albicans), sequence (P10875 whole entry, looked up): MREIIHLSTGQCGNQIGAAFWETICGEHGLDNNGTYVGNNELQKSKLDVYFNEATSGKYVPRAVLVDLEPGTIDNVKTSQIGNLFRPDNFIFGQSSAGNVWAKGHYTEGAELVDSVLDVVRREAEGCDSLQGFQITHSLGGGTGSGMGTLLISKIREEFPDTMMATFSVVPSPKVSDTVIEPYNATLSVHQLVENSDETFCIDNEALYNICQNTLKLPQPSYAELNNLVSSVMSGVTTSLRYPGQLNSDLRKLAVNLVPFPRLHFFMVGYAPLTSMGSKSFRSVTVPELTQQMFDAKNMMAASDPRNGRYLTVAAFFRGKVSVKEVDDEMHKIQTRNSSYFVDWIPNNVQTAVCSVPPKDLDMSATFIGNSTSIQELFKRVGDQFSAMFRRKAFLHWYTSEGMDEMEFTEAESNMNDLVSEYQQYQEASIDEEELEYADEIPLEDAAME
Tubulin (Candida albicans), sequence (P87066 whole entry, looked up): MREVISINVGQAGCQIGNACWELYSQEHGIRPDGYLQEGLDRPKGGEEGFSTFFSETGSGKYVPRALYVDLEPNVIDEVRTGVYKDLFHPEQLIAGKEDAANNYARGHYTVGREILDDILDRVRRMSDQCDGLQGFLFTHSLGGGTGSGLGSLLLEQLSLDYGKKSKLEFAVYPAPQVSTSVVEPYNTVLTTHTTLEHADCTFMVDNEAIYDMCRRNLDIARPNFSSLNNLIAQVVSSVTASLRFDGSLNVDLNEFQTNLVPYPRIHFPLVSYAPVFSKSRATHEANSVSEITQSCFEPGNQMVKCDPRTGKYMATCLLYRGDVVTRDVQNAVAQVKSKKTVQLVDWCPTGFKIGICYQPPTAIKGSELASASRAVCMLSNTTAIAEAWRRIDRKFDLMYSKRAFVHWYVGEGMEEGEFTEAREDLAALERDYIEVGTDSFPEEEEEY

[20] = tested on: HeLa; assay: Effect on cell cycle progression in human HeLa cells assessed as increase in 4N cells at 40 nM; type: functional, cell-based
[21] = tested on: HeLa; assay: Effect on cell cycle progression in human HeLa cells assessed as reduction in 2N cells at 40 nM; type: functional, cell-based

In the case of `COc1ccc(/C=C\c2cc(OC)c(OC)c(OC)c2)cc1O`, the TIME [1] is reported as 0.0055 h, the inhibition [2] is reported as “Dose-dependent effect” and the TIME [3] is reported as 0.00917 h. The Activity [4] was 1.09 min⁻¹, the TIME [5] was 0.0045 h and the Activity [6] was 1.9 min⁻¹. The Activity [7] was “Dose-dependent effect”, the inhibition [8] was “Active” and the TIME [9] was 0.66 h. The Activity [10] was “Active”, the TIME [11] was 0.0075 h and the Activity [12] was “Active”. It also gave an Activity [13] of 1.52 min⁻¹, a TIME [14] of 0.653 h and an Activity [15] of 2.79 min⁻¹. For the same compound, the TIME [16] was 0.00367 h and the TIME [17] was 0.0035 h.
In the case of `CC(C)(c1[nH]cnc1/C=C1\NC(=O)[C@H](Cc2ccccc2)NC1=O)C1CO1` (stereo in doubt), the Drug metabolism [18] is reported as “Metabolite_Detected”.
In the case of `COC(=O)Nc1nc2cc(C(=O)c3cccs3)ccc2[nH]1`, the inhibition [19] is reported as “Active”, the Activity [20] is reported as “Active” and the Activity [21] is reported as “Active”.
